One test in a line: PubChem AID 623931. To be noted: Ricerca radioligand binding panel, % inhibition, at 10 µM, stronger effect = higher value.
Test [1] addresses 5-hydroxytryptamine receptor 2B (Homo sapiens) (UniProt P41595). Nature of the test: PubChem AID 623931. To be noted: Ricerca radioligand binding panel, % inhibition; at 10 µM; stronger effect = higher value.

For `COc1ccc(C#Cc2ccc(C(=O)N3CCC[C@@H](CO)C3)cc2)cc1`, the inhibition turned out to be 21% in “PubChem AID 623931” (GABA-A muscimol site binding); 21% in “PubChem AID 623931” (K-ATP channel binding); 44% in the test “PubChem AID 623931” (adenosine A3 receptor binding); 19% in “PubChem AID 623931” (dopamine D3 receptor binding); 88% in the test “PubChem AID 623931” (dopamine transporter DAT binding); 13% in the test “PubChem AID 623931” (hERG potassium channel binding). For the same compound, the inhibition in “PubChem AID 623931” (imidazoline I2 binding) amounted to 35%; in the test “PubChem AID 623931” (norepinephrine transporter NET binding), 28%; in the test “PubChem AID 623931” (prostanoid EP4 receptor binding) it was 45%; in “PubChem AID 623931” (purinergic P2Y binding), 23%; in “PubChem AID 623931” (serotonin transporter SERT binding), 50%; in the test “PubChem AID 623931” (sigma 1 receptor binding), 37%. For the same compound, the inhibition in test [1] came out at 71%.

For orientation: inhibition means the relative decrease from the control value, in per cent.

The values above are taken from PubChem BioAssay AID623931 (Vanderbilt Specialized Chemistry Center, 2012).
